This note sets out measurements from patent publication US11149068B2, “Pore-forming peptides and uses thereof” (The Administrators of the Tulane Educational Fund, priority 2018, dated 2021).

Ends that are not written are not given here.

The nature of series [1]: Macromolecular leakage assay (release of 40 kDa TAMRA-biotin-dextran from lipid vesicles). The format is biochemical. As to conditions: for dextran release at pH 7: peptide to lipid ratios as high as 1:50. The protocol:
(§1) Large unilamellar vesicles for leakage assays were prepared as previously described (37) in 100 mM potassium chloride, with 10 mM sodium phosphate or 10 mM sodium acetate buffer. For small molecule leakage, lipids, dried from chloroform, were resuspended in buffer made of: 12.5 mM ANTS, 45 mM DPX, 5 mM HEPES, and 20 mM sodium chloride. For macromolecular leakage assays, lipids were resuspended in buffer with 1 mg/ml TAMRA-biotin-dextran (TBD). Lipid suspensions were frozen and thawed ten times and then extruded 10 times using a 0.1 um pore size Nuclepore polycarbonate filter (38). After extrusion, external ANTS and DPX were removed by gel filtration with Sephadex G100. External TBD was removed using streptavidin agarose resin.
As described previously (33), 40 nM Alexafluor488-labelled streptavidin (SA) was added to a solution of vesicles with entrapped TBD. This solution was added to wells of a 96-well plate containing peptide, and the plate was incubated for 60 min. Release of the 40 kDa dextran enables TBD-SA complex formation, which leads to quenching of the AF488 fluorescence (excitation 495 nm, emission at 519 nm) by TAMRA. The fraction of macromolecule leakage was determined by Equation 2:
[formula] where I is the intensity at 60 min, Ibackground is the intensity of a vesicle control with no peptide, and Itriton is the intensity in the presence of vesicles and 0.1% v/v of the detergent Triton X-100, added to solubilize the vesicles and release the ANTS.
Step 4: Next, to the same wells, a different preparation of vesicles was added. These vesicles have entrapped 40 kDa TBD and external Alexafluor488 streptavidin. The TBD vesicles were in sodium acetate buffer at pH 4 so that the final pH in each well was 5.0. This second addition of vesicles increased the total volume to 200 μl which decreased peptide to 2.5 μM and decreased ANTS vesicle concentration to 0.5 mM. The new TBD vesicles were present at 1.5 mM so that the total peptide to total lipid ratio was roughly about 1:800.
Step 5: After 60 minutes, the intensity of the AF488-streptavidin was measured to quantitate macromolecule release, which is calculated with equation 2. This orthogonal and sequential screen gives two measurements that are used to identify peptides with the desired properties: i) Small molecule release at pH 7 and P:L=1:200; ii) Macromolecule release at pH 5 and P:L=1:800.
Verification of positive peptides. Since the selected peptides are very similar to each other, a subset of them were synthesized and purified for detailed validation. Tested peptides included four representative sequences with five acidic residues, pHD24, pHD34, pHD108 and pHD118 as well as pHD15, one of the two with six acidic residues. Because there is interest in pH-triggered macromolecule release at low pH, the positive peptides were validated with the macromolecular release assay using 40 kDa dextran and 53 kD streptavidin, described above. Dextran leakage was measured as functions of peptide concentration and pH using vesicles made from phosphatidylcholine lipids.

Series [2] is described as follows: Circular dichroism spectroscopy of peptide secondary structure in the presence of vesicles versus pH. The format is physicochemical. As to conditions: P:L=1:200. The protocol: FIGS. 5A-5B are graphs depicting example binding and folding data. FIG. 5A: Circular dichroism spectra of pHD108 (SEQ ID NO: 9) versus pH at P:L=1:200 in 1 mM POPC vesicles. Separate samples are made at each pH and equilibrated for 30 minutes prior to the measurement. The spectra show a structural transition from random coil at pH 7 to classical α-helix at pH<5.75. FIG. 5B: Tryptophan fluorescence spectra of pHD108 at P:L=1:200 in 1 mM POPC vesicles. Separate samples are made at each pH and equilibrated for 30 minutes prior to the measurement. The spectra show a transition from a more polar, water-exposed environment to a less polar or buried environment consistent with peptide partitioning into bilayers.
Peptide secondary structure in the presence of vesicles as a function of pH was studied by circular dichroism spectroscopy. Example CD spectra for pHD108 at P:L=1:200 are seen in FIG. 5A and show a pH-triggered transition from random coil to α-helical structure with an effective pKa around 5.5. Circular dichroism was measured in a JASCO 810 spectropolarimeter. Samples in buffers of various pH were prepared by mixing peptide and vesicle solutions, each prepared at the needed pH. Spectra were collected on samples of 2 mM vesicles and 10 μM peptide in 1 mm path rectangular quartz cuvette after 1 hour of equilibration.

The subject of series [3] is Chinese Hamster Ovary cells. The experiment in a line: Cell viability, Alamar Blue assay. The series is classed as cell-based. As to conditions: ten minutes with peptide at pH 5 or pH 7, overnight recovery; except at the highest concentration. The protocol:
FIGS. 7A-7B are graphs showing the effect of peptides on the viability Chinese Hamster Ovary cells incubated with either the lytic peptide MelP5, or the pH-triggerred membrane permeabilizing peptide pHD108. Cells were grown to 50% confluency, and then treated for ten minutes with peptide in cell culture media at pH 5 (FIG. 7A) or at pH 7 (FIG. 7B). Full media with growth factors was added and the cells recovered overnight. Viability was assessed with the Alamar Blue assay. The values were normalized to cells treated with media only (negative control) and media only, no cells (positive control).
On the technique in general: Resazurin is reduced to fluorescent resorufin, in cell work by metabolically active cells.

Series [4] in a line: Small molecule leakage assay (ANTS/DPX release from lipid vesicles). The series is classed as biochemical. As to conditions: screen conditions. The protocol:
as §1, with “External TBD was removed using streptavidin agarose resin.” left out
Lipid vesicles with entrapped ANTS and DPX were diluted into wells of a 96 well plate containing peptide. After 30 minutes, vesicle permeabilization was measured by an increase in ANTS fluorescence, with excitation at 350 nm and emission at 519 nm. Fractional leakage was quantified using Equation 1: […]
Step 2: Aliquots of peptides in water from the plate in Step 1 were added to wells of a second plate, followed by addition of 1 mM lipid vesicles in 100 μl of sodium phosphate buffer at pH 7. […] Leakage, if it occurs, causes an increase in fluorescence of ANTS. […]
Step 3: After 30 minutes of incubation, ANTS fluorescence was measured for each well to quantitate small molecule release using equation 1.

As for GIGDVLHELAADLPELQEWIHAAQQL [pHD24], the “dextran release at pH 7” value in series [1] is recorded as “no activity”.

For GIGEVLHELAEGLPELQEWIHAAQQL [pHD108], the “effective pKa of transition from random coil to α-helical structure” value in series [2] is listed as “around 5.5”. Besides, the “toxicity to mammalian cells” value in series [3] is “did not exhibit toxicity”.

Regarding Triton X-100, in series [1] (screen conditions, 0.1% v/v), the “release of macromolecule probe (TBD)” value was “essentially complete release”. The “release of small molecule probe (ANTS)” value in series [4] (0.1% v/v) was “essentially complete release”.

With “GIGAVLKVLATGLPALISWIKAAQQL [MelP5, synthetically evolved gain-of-function variant of melittin, non pH-sensitive macromolecular pore-former]”, in series [1] (screen conditions, 1 nmol, all pH values), the macromolecule release entry was “partial”. For the same substance, the “release of macromolecule probe (TBD)” value in series [1] (screen conditions, 4 nmol (P:L=1:100)) was “essentially complete release”. In series [4] (4 nmol), the “release of small molecule probe (ANTS)” value is recorded as “essentially complete release”.

GIGEVLHELADDLPDLQEWIHAAQQL [pHD15]: the “apparent pKa of macromolecule leakage (curve midpoints)” value in series [1] (P:L=1:200, 1 mM POPC vesicles, 40 kDa dextran) is given as “lowest apparent pKa value”. For the same substance, the “dextran release at pH 7” value in series [1] is on record as “no activity”.
